The values below come from paper PMC7933930, “Development of a small molecule that corrects misfolding and increases secretion of Z α1‐antitrypsin” (EMBO Molecular Medicine, 2021).

The target in data set [1] is OPRM1 (Homo sapiens, UniProt P35372). Put plainly: Off‐target panel: OPRM1. The class given is cell-based. As to the method:
(§1) GSK716 selectivity and PK properties were profiled in order to investigate the suitability of GSK716 for progression into in vivo studies and the potential for taking it forward as a clinical candidate for testing in humans. Since GSK716 results in loss of inhibitory activity of α1‐antitrypsin, the effect of the compound was assessed on other closely related serpins. […] Furthermore, there were no off‐target effects in a panel of assays considered predictive of known safety liabilities that precluded further development of GSK716 (Table EV1).

Data set [2] in a line: Oral pharmacokinetics in male CD‐1 mouse. It counts as in vivo. On the procedure: Male CD‐1 mice, Han Wistar rats or beagle dogs were administered GSK716 as a suspension in 1% w/v aqueous methylcellulose via oral gavage at doses of 1 mg/kg (dog) or 10, 30 and 100 mg/kg (mouse, rat). Blood samples were taken into EDTA, diluted and mixed with acetonitrile containing internal standard (alprazolam) and centrifuged to precipitate proteins. Aliquots of the resultant supernatant were analysed by LC‐MS/MS, and concentrations of GSK716 in blood were determined. Non‐compartmental pharmacokinetic analysis (NCA) was carried out using Phoenix WinNonLin 6.3 (Certara L.P.). Free drug was measured in Z α1‐antitrypsin transgenic mice by dialysing tissue samples in rapid equilibrium dialysis cassettes.

In data set [3] the target is Norepinephrine transporter (Homo sapiens, UniProt P23975). Put plainly: Off‐target panel: Norepinephrine transporter (DRX). It counts as cell-based. On the procedure: as §1
Norepinephrine transporter, sequence (P23975 whole entry, species assumed): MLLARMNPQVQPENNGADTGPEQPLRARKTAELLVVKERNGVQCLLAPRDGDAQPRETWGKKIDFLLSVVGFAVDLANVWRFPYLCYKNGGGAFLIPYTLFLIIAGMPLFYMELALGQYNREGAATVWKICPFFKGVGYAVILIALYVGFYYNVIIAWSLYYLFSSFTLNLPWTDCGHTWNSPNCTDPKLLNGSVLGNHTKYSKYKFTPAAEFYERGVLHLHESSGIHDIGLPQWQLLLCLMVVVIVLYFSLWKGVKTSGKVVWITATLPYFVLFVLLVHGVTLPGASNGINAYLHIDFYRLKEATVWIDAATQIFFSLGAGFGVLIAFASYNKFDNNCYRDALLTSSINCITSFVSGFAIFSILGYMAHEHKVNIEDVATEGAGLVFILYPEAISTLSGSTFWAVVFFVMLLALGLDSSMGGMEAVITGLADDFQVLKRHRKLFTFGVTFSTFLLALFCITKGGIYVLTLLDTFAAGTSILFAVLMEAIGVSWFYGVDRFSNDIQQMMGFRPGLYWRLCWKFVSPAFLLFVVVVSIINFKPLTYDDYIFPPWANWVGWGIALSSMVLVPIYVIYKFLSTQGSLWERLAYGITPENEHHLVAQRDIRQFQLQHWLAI
Data set [4] deals with Cell Health. In words: Off‐target panel: Cell Health. It counts as cell-based. As to the method: as §1
Data set [5] concerns the target Serotonin 5HT2A (Homo sapiens, UniProt P28223). In words: Off‐target panel: Serotonin 5HT2A (DRX). It counts as cell-based. As to the method:
as §1

The target of data set [6] is Z α1‐antitrypsin (Homo sapiens, UniProt P01009, E366K). Put plainly: Circulating monomeric Z α1‐antitrypsin in plasma of Z α1‐antitrypsin transgenic mice. It counts as in vivo, mouse. Also noted: random insertion of the human Z α1‐antitrypsin gene; from tissue; host or cells: hemizygous Z α1-antitrypsin transgenic mice (liver, plasma). On the procedure:
GSK716 was evaluated in a transgenic mouse model with an engineered random insertion of the human Z α1‐antitrypsin gene (Teckman et al, 2004). […] Further, older mice have larger α1‐antitrypsin inclusions that may be more difficult to reverse and any changes would be more difficult to detect than in younger animals. The PK‐PD relationship of GSK716 was explored by dosing Z α1‐antitrypsin transgenic animals with 10, 30 or 100 mg/kg GSK716 three times a day. Blood and liver were harvested on day 6 at 3 h (~ C max) and 8 h (C min) after the dose for the measurement of total and free drug in both tissues. Blood was also harvested for the measurement of monomeric Z α1‐antitrypsin in plasma. Total concentrations of GSK716 were determined by LC‐MS/MS, and the free drug in both tissues was determined using equilibrium dialysis to determine free fraction in the samples, subsequently used to derive unbound concentrations. […] Both free and total drug concentrations of GSK716 at the targeted site of action in the liver were equivalent to those in blood (Table 2).
A significant fraction of the total Z α1‐antitrypsin in the circulation is in the polymeric conformation (Tan et al, 2014). There are no antibodies that are specific for monomeric Z α1‐antitrypsin and so to directly determine its concentration, a deconvolution method was developed based on immunoassays with antibodies for either total or polymeric α1‐antitrypsin, and calibration curves with purified monomeric and polymeric Z α1‐antitrypsin. Monomeric Z α1‐antitrypsin was measured in plasma samples following 6 days of dosing, and levels were normalised to each animals’ pre‐dose control levels to account for the natural variation of Z α1‐antitrypsin between animals. […] Total drug levels and changes in Z α1‐antitrypsin following 3 days of dosing were indistinguishable from those following 6 days of dosing. There was no effect on circulating serum albumin after 5 days of dosing which provides evidence that GSK716 is specific for Z α1‐antitrypsin. Moreover, the effects are not mediated by metabolites of GSK716 as the major metabolites have much reduced or no binding to α1‐antitrypsin.
Plasma standards of monomeric and polymeric Z α1‐antitrypsin were prepared and assayed with an antibody mix comprising a 1:160 dilution of rabbit polyclonal anti‐ α1‐antitrypsin (Abcam product 9373), 0.23 µg/ml terbium anti‐mouse, 4.5 µg/ml Alexa488 goat anti‐rabbit, 0.17 µg/ml mouse anti‐total‐ α1‐antitrypsin monoclonal 3C11 and 2 µg/ml mouse 2C1 anti‐polymeric‐ α1‐antitrypsin. After a 16‐h incubation at 20°C, TR‐FRET detection was performed on an Envision plate reader (Perkin Elmer).
Plots of the FRET ratio (acceptor/donor signal) versus sample dilution result in bell‐shaped curves due to the hook effect. The polymer Z α1‐antitrypsin concentration was determined by comparing the peak positions of these bell‐shaped curves for plasma samples with those for polymer calibration samples. The polymer concentration in the plasma sample and the polymer calibration curve was then used to derive the contribution of polymer to the FRET signal in the total α1‐antitrypsin assay at the signal peak, enabling determination of the concentration of monomeric Z α1‐antitrypsin.
Hemizygous female Z α1‐antitrypsin transgenic mice were 13–15 weeks of age at start of study. Drugs were administered via oral gavage three times a day at 8‐h intervals at 10 ml/Kg as a suspension in aqueous methylcellulose containing 0.5% w/v Tween 80. […]

A word on the EC50: it is the concentration giving half of the maximal effect. Lower therefore signals higher potency in that assay. One may read the IC50 as the concentration that gives 50% inhibition. Low values mean inhibition by little substance, high ones a need for much substance.

Z α1‐antitrypsin, sequence (P01009 25-418 E366K): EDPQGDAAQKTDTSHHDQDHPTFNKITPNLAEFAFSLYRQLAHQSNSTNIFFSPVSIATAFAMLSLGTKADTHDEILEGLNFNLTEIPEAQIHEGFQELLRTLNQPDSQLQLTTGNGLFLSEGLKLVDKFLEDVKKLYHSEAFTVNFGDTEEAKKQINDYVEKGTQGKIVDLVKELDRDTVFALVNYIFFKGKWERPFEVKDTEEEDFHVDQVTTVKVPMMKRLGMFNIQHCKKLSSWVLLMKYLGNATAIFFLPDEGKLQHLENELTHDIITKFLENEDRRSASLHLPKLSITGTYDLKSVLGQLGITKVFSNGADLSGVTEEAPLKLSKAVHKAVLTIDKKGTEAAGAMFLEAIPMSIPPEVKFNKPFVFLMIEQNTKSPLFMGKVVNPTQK
Serotonin 5HT2A, sequence (P28223 whole entry): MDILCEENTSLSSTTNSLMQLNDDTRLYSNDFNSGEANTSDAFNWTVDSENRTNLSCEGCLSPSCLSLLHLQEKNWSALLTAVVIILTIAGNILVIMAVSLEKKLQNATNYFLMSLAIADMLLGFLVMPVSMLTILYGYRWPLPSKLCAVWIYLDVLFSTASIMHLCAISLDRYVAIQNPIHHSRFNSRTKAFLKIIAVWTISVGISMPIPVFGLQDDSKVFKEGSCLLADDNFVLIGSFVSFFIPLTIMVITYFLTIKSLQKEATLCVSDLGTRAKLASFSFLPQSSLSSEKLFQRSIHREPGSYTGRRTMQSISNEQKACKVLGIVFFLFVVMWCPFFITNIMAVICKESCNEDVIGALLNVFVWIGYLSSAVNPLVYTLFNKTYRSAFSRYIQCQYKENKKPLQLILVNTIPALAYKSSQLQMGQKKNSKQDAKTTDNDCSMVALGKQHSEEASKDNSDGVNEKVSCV
OPRM1, sequence (P35372 whole entry, species assumed): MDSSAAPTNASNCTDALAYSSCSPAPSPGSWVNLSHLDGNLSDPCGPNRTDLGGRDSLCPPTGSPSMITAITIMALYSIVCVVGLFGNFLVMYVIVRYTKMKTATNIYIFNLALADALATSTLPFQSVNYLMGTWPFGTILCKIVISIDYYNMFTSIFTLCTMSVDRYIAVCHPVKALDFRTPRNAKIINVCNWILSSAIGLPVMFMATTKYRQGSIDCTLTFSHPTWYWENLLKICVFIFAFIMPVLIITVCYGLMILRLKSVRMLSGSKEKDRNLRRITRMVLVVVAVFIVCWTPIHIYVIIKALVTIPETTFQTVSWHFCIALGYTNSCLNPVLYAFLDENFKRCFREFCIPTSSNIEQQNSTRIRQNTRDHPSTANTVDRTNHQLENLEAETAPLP

As to `CCC[C@@H](NC(=O)c1cccc2c1CC(=O)N2)[C@@H](O)c1cccc(F)c1C` [GSK716], the EC50 in data set [1] and in data set [5] was over 100 µM in each case. The DNAUCinf in blood in data set [2] (single PO 10 mg/kg) turned out to be 202 ± 101; in data set [2] (single PO 30 mg/kg) it was 294 ± 47; in data set [2] (single PO 100 mg/kg), 403 ± 246. In addition, the values for the IC50 in data set [3] and in data set [5] were over 100 µM and 63.1 µM, respectively. The “Mean (PXC50)” value in data set [4] (Membrane Permeability) is under 3.7; in data set [4] (Mitochondrial Potential), 3.8; in data set [4] (Nucleus (size)) it was under 3.7. For the same compound, the “change in circulating Z α1‐antitrypsin” value in data set [6] (10 mg/kg three times a day, oral, 6 days of dosing) is “significant, dose‐dependent increases”; in data set [6] (30 mg/kg three times a day, oral, 6 days of dosing) it was “significant, dose‐dependent increases”. The “mean increase of monomeric Z α1‐antitrypsin in plasma over pre‐dosing baseline” value in data set [6] (100 mg/kg three times a day, days 15 and 21 of dosing) was “sevenfold to eightfold”. The “mean increase in circulating monomeric Z α1‐antitrypsin levels over pre‐dose” value in data set [6] (100 mg/kg three times a day, oral, 6 days of dosing) is recorded as “sevenfold”. Also, in data set [6] (Z α1‐antitrypsin transgenic mice, within 3 days), the “increase in circulating levels of Z α1‐antitrypsin” value is recorded as “sevenfold”.
